Measured values published in patent publication US8093183B2, “Methods for using polyol esters to control pests” (S.C. Johnson & Son, Inc., priority 2004, dated 2012).
Like-named read-outs stand apart in the source and are kept apart here.

Test system: German cockroaches
Conditions: spraying about three grams of formulation
Source text: In our experiments we created aqueous solutions of sucrose octanoate and sorbitol octanoate by diluting the more concentrated formulations provided by the aforesaid manufacturers. We created varied concentrations ranging from 0.05% through 10%.
We tested our formulations by spraying them on cockroaches, ants, crickets, silverfish, wasps, bristletails, hornets, centipedes, earwigs, spiders and sowbugs.

sucrose octanoate
kill at 24 hours (0.1% concentration): essentially no kill | kill at 24 hours (1% concentration): about 80% | kill (5% concentration): 100%
